Measured values from patent US9296694B2, “Azacyclic compounds” (ACADIA Pharmaceuticals Inc., priority 2000, dated 2016).
Entries after “also recorded” stand apart in the source; their conditions may differ.

Each molecule was assayed on acoustic startle and prepulse inhibition in rats (assay: Startle testing, prepulse inhibition (PPI) in rats). Settings: rats; 0.5 mg/kg, s.c.
Assay type: in vivo
Excerpt: (§1) Instruments) were used for rat experiments (details on startle apparatus and measures, see Male Non-Swiss Albino mice and male Sprague-Dawley rats (Harlan Sprague-Dawley) were housed (4 mice/cage; 2 rats/cage) in rooms with temperature and humidity controlled and water and food (Harlan Teklad) freely available. Mice were kept on a 12-hr light:dark cycle, whereas rats were kept on a 12-hr reverse light:dark cycle. For locomotor and observation experiments in mice, plastic 20×20×30 cm activity cages were equipped with photocell beams (AccuScan Instruments). Startle chambers (San Diego Instruments) were used for rat experiments (for details on startle apparatus and measures, see Mansbach et al., (1988) Psychopharmacology 94:507-14).
Rats were tested and groups (n=10) matched for levels of startle reactivity and prepulse inhibition (PPI; see Mansbach et al., (1988) Psychopharmacology 94:507-14). Two days later, test sessions started and consisted of a 5-min acclimation period with a constant background noise (65 dB), followed by 60 presentations of acoustic stimuli to measure acoustic startle responses. The 60 trials consisted of: twenty two 40-ms presentations of a 120 dB broadband pulse, ten 20-ms presentations of each prepulse intensity (68, 71, 77 dB) 100 ms prior to a 40-msec presentation of a 120 dB broadband pulse, and 8 NOSTIM trials in which no stimuli were delivered in order to assess general motor activation in the rats. Thirty min before testing, rats were treated with sterile water (s.c.), risperidone (1.0 mg/kg, i.p.), or AC-90179 (s.c.). Five min later, rats were administered DOI (0.5 mg/kg, s.c.) or 0.9% saline (s.c.). One-week later, rats were administered the same pretreatment drug or vehicle and crossed over to receive the treatment opposite to that they received the previous week. Startle magnitudes and percent PPI for the three prepulse intensities were calculated as described elsewhere (Bakshi, et al., (1994) J. Pharmacol. Exp. Ther. 271:787-94) and ANOVAs with repeated measures performed.
For `COc1cc(CC(C)N)c(OC)cc1I` (stereo not drawn) [DOI, reference compound], the “effect on PPI” value was “significantly disrupted PPI”.

Same assay, conditions: rats; 3-way repeated measures ANOVA
In the case of `Cc1nc2n(c(=O)c1CCN1CCC(c3noc4cc(F)ccc34)CC1)CCCC2` [risperidone], the “effect on startle magnitude” value is reported as “no effect on startle magnitude”.

Same assay, conditions: rats; DOI 0.5 mg/kg s.c.; AC-90179 s.c., risperidone 1.0 mg/kg i.p.
`Cc1nc2n(c(=O)c1CCN1CCC(c3noc4cc(F)ccc34)CC1)CCCC2` [risperidone] was tested, and the “restoration of PPI in DOI-treated rats” value was “effective in restoring PPI in DOI-treated rats; also recorded: significant effects”.

Same assay, conditions: saline (vehicle)-treated rats; AC-90179 s.c., risperidone 1.0 mg/kg i.p.
`Cc1nc2n(c(=O)c1CCN1CCC(c3noc4cc(F)ccc34)CC1)CCCC2` [risperidone] was tested, and the “effect on PPI on its own” value was “no effect on PPI by itself”.

Each molecule was assayed on DOI-induced head twitches in mice (assay: Observation for head twitches in DOI-treated mice). Settings: mice; 2.5 mg/kg, i.p., 15 min; score 0-6.
Assay type: in vivo
Excerpt: as §1
Mice were treated with 2.5 mg/kg DOI i.p. Five min later, mice were treated with AC-90179 s.c. and placed into activity cages. Ten min later, mice were observed using a repeated sampling technique. […] Each dose combination was tested in a separate group of animals (n=8) and the experimenter was blind to drug conditions. Head twitch scores were averaged followed by analysis of variance (ANOVA) and post-hoc Dunnett's t-test comparisons.
The effect of various compounds on head twitch behavior in mice treated with DOI was observed as described in Example 139. Animals received 0.1-30 mg/kg of the compound indicated via subcutaneous injection. MED indicates the minimum effective dose at which a statistically significant reduction in head twitching score (described above) was observed. MED=minimum effective dose in vivo.
For `COc1cc(CC(C)N)c(OC)cc1I` (stereo not drawn) [DOI, reference compound], the “average head twitch score” value was 2.6 (±0.3, S.E.M.).

Same assay, conditions: statistically significant reduction in head twitching score; DOI-treated mice; 0.1-30 mg/kg subcutaneous injection
`CCN1CCC(N(Cc2ccc(C)cc2)C(=O)Cc2ccc(Cl)cc2)CC1` [Compound 47AKU-12, 2-(4-Chlorophenyl)-N-(4-methylbenzyl)-N-(1-ethylpiperidin-4-yl)acetamide] was tested, and the “MED (minimum effective dose in vivo)” value was “≦10 mg/kg”. `COc1ccc(CC(=O)N(Cc2ccc(C)cc2)C2CCN(Cc3ccccc3)CC2)cc1.Cl` [Compound 26HCH17, N-((4-Methylphenyl)methyl)-N-(1-(phenylmethyl)piperidin-4-yl)-4-methoxyphenylacetamide hydrochloride] was tested, and the “MED (minimum effective dose in vivo)” value was 30 mg/kg. With `COc1ccc(CC(=O)N(CCc2ccc(F)cc2)C2CCN(C)CC2)cc1` [Compound 50ELH93A, 2-(4-Methoxyphenyl)-N-(2-4-(fluorophenyl)ethyl)-N-(1-methylpiperidin-4-yl)acetamide] the “MED (minimum effective dose in vivo)” value was “≦10 mg/kg”. `Cc1ccc(CN(C(=O)Cc2ccc(Cl)cc2)C2CCN(CCO)CC2)cc1` [Compound 47AKU-18, 2-(4-Chlorophenyl)-N-(4-methylbenzyl)-N-(1-(2-hydroxyethyl)-piperidin-4-yl)-acetamide] was tested, and the “MED (minimum effective dose in vivo)” value was “≧10 mg/kg”. For `COc1ccc(CC(=O)N(Cc2ccc(C)cc2)C2CC3CCC(C2)N3C)cc1` (stereo not drawn) [Compound 47AKU-21, 2-(4-Methoxyphenyl)-N-(4-methylbenzyl)-N-(tropin-4-yl)acetamide], the “MED (minimum effective dose in vivo)” value was over 10 mg/kg. In the case of `COc1ccc(CC(=O)N(Cc2ccc(Cl)cc2)C2CCN(C(C)C)CC2)cc1` [Compound 42ELH90, 2-(4-Methoxyphenyl)-N-(4-chlorbenzyl)-N-(1-isopropylpiperidin-4-yl)acetamide], the “MED (minimum effective dose in vivo)” value is reported as about 10 mg/kg. With `CCOc1ccc(CC(=O)N(CCc2ccc(F)cc2)C2CCN(C)CC2)cc1` [Compound 63ELH20, 2-(4-ethoxyphenyl)-N-[2-(4-fluorophenyl)ethyl]-N-(1-methylpiperidin-4-yl)acetamide] the “MED (minimum effective dose in vivo)” value was “≦10 mg/kg”. For `COc1ccc(CC(=O)N(Cc2ccc(C)cc2)C2CCN(C(C)(C)C)CC2)cc1` [Compound 47AKU-49, 2-(4-Methoxyphenyl)-N-(4-methylbenzyl)-N-(1-t-butylpiperidin-4-yl)-acetamide], the “MED (minimum effective dose in vivo)” value was “≦10 mg/kg”. With `CCOc1ccc(CC(=O)N(Cc2ccc(C)cc2)C2CCN(C)CC2)cc1` [Compound 58AKU-4, 2-(4-Ethoxyphenyl)-N-(4-methylbenzyl)-N-(1-methylpiperidin-4-yl)acetamide] the “MED (minimum effective dose in vivo)” value was “≦10 mg/kg”. For `Cc1ccc(CN(C(=O)Cc2ccc(OC(C)C)cc2)C2CCN(C)CC2)cc1` [Compound 58AKU-6, 2-(4-i-Propoxyphenyl)-N-(4-methylbenzyl)-N-(1-methylpiperidin-4-yl)acetamide], the “MED (minimum effective dose in vivo)” value was “≦10 mg/kg”. With `CN1CCC(N(CCc2ccccc2)C(=O)NCc2ccccc2)CC1` [Compound 47AKU-25, N-Phenethyl-N-(1-methylpiperidin-4-yl)-N′-benzyl-carbamide] the “MED (minimum effective dose in vivo)” value was over 10 mg/kg. `CCOc1ccc(CC(=O)N(Cc2ccc(F)cc2)C2CCN(C)CC2)cc1` [Compound 63ELH21, 2-(4-Ethoxyphenyl)-N-(4-fluorobenzyl)-N-(1-methylpiperidin-4-yl)acetamide] was tested, and the “MED (minimum effective dose in vivo)” value was “≦10 mg/kg”. `CCCCOc1ccc(CC(=O)N(Cc2ccc(C)cc2)C2CCN(C)CC2)cc1` [Compound 58AKU-5, 2-(4-Butoxyphenyl)-N-(4-methylbenzyl)-N-(1-methylpiperidin-4-yl)acetamide] was tested, and the “MED (minimum effective dose in vivo)” value was “≦1 mg/kg”. `COc1ccc(CC(=O)N(Cc2ccc(C)cc2)C2CCN(C3CCC3)CC2)cc1` [Compound 47AKU-20, 2-(4-Methoxyphenyl)-N-(4-methylbenzyl)-N-(1-cyclobutylpiperidin-4-yl)acetamide] was tested, and the “MED (minimum effective dose in vivo)” value was “≦10 mg/kg”. In the case of `COc1ccc(CC(=O)N(Cc2ccc(C)cc2)C2CCN(CC3CCCCC3)CC2)cc1` [Compound 42ELH45, 2-(4-Methoxyphenyl)-N-(4-methylbenzyl)-N-(1-cyclohexylmethylpiperidin-4-yl)acetamide], the “MED (minimum effective dose in vivo)” value is reported as 30 mg/kg. In the case of `Cc1ccc(CN(C(=O)Cc2ccccc2)C2CCN(C)CC2)cc1` [Compound 47AKU-13, 2-Phenyl-N-(4-methylbenzyl)-N-(1-methylpiperidin-4-yl)-acetamide], the “MED (minimum effective dose in vivo)” value is reported as “≦10 mg/kg”. For `COc1ccc(CC(=O)N(CCCc2ccccc2)C2CCN(C)CC2)cc1` [Compound 50ELH65, 2-(4-Methoxyphenyl)-N-(3-phenyl-1-propyl)-N-(1-methylpiperidin-4-yl)acetamide], the “MED (minimum effective dose in vivo)” value was “≦10 mg/kg”. In the case of `COc1ccc(CC(=O)N(CCc2ccc(C)cc2)C2CCN(C)CC2)cc1` [Compound 50ELH68], the “MED (minimum effective dose in vivo)” value is reported as “≦10 mg/kg”. With `CCN1CCC(N(Cc2ccc(C)cc2)C(=O)Cc2ccc(OC)cc2)CC1` [Compound 42ELH80, 2-(4-Methoxyphenyl)-N-(4-methylbenzyl)-N-(1-ethylpiperidin-4-yl)acetamide] the “MED (minimum effective dose in vivo)” value was “≦10 mg/kg”. In the case of `COc1ccc(CNC(=O)N(Cc2ccc(C)cc2)C2CCN(C)CC2)cc1` [Compound 47AKU-44, N-(4-Methylbenzyl)-N-(1-methylpiperidin-4-yl)-′N′-(4-methoxybenzyl)-carbamide], the “MED (minimum effective dose in vivo)” value is reported as “≦10 mg/kg”. In the case of `CN1CCC(N(Cc2ccc(F)cc2)C(=O)Cc2ccc(F)cc2)CC1` [Compound 50ELH6, 2-(4-Fluorophenyl)-N-(4-fluorobenzyl)-N-(1-methylpiperidin-4-yl)acetamide], the “MED (minimum effective dose in vivo)” value is reported as “≦10 mg/kg”. `Cc1ccc(CN(C(=O)NCc2ccccc2)C2CCN(C)CC2)cc1` [Compound 47AKU-22, N-(4-Methylbenzyl)-N-(1-methylpiperidin-4-yl)-N′-benzyl-carbamide] was tested, and the “MED (minimum effective dose in vivo)” value was “≦10 mg/kg”. With `Cc1ccc(CN(C(=O)Cc2ccc(Cl)cc2)C2CCN(C3CCCC3)CC2)cc1` [Compound 47AKU-11, 2-(4-Chlorophenyl)-N-(4-methylbenzyl)-N-(1-cyclopentylpiperidin-4-yl)-acetamide] the “MED (minimum effective dose in vivo)” value was about 10 mg/kg. With `Cc1ccc(CN(C(=O)Cc2ccc(Cl)cc2)C2CCN(C3CCC3)CC2)cc1` [Compound 47AKU-19, 2-(4-Chlorophenyl)-N-(4-methylbenzyl)-N-(1-cyclobutylpiperidin-4-yl)-acetamide] the “MED (minimum effective dose in vivo)” value was over 10 mg/kg. `Cc1ccc(CN(C(=O)Cc2ccc(F)cc2)C2CCN(C)CC2)cc1` [Compound 47AKU-14, 2-(4-Flourophenyl)-N-(4-methylbenzyl)-N-(1-methylpiperidin-4-yl)-acetamide] was tested, and the “MED (minimum effective dose in vivo)” value was “≦10 mg/kg”. In the case of `COc1ccc(CC(=O)N(Cc2ccc(C)cc2)C2CCN(C3CCCC3)CC2)cc1` [Compound 42ELH75, 2-(4-Methoxyphenyl)-N-(4-methylbenzyl)-N-(1-cyclopentylpiperidin-4-yl)acetamide], the “MED (minimum effective dose in vivo)” value is reported as “≦10 mg/kg”. `Cc1ccc(CN(C(=O)Cc2ccc(Cl)cc2)C2CCN(C(C)C)CC2)cc1` [Compound 47AKU-7, 2-(4-Chlorophenyl)-N-(4-methylbenzyl)-N-(1-isopropylpiperidin-4-yl)acetamide] was tested, and the “MED (minimum effective dose in vivo)” value was “≦10 mg/kg”. With `Cc1ccc(CN(C(=O)Cc2ccc(Cl)cc2)C2CCN(C)CC2)cc1` [Compound 47AKU-8, 2-(4-Chlorophenyl)-N-(4-methylbenzyl)-N-(1-methylpiperidin-4-yl)-acetamide] the “MED (minimum effective dose in vivo)” value was “≦10 mg/kg”.
